Results from US20240209028A1, “CNP COMPOUNDS” (priority 2022, published 2024).
Starred links: 1 amine or outer side, 2 acyl side, 3 side chain; linkers in the order of their positions; H or OH if unused. Positions of bridges follow the written chain, without caps; N, C: chain ends. Residues, ends and D or L forms follow the SMILES beside them. *: point of attachment. C18 diacid = O=C(O)CCCCCCCCCCCCCCCCC(=O)*; γGlu = O=C(O)[C@H](CCC(=O)[*:2])N[*:1]; AEEA = NCCOCCOCC(=O)O

target: T1, human natriuretic peptide receptor 2 (hNPR2) (Homo sapiens, UniProt P20594); experiment: In vitro hNPR2 activity assay (cGMP GloSensor reporter, HEK293); format: cell-based; settings: potency relative to CNP22 (0065)
T1 construct: expressed in transfected cells; host or cells: HEK293 (ATCC CRL-1573), clone 35, co-transfected with pGloSensor-42F
T1 sequence (P20594 23-1047): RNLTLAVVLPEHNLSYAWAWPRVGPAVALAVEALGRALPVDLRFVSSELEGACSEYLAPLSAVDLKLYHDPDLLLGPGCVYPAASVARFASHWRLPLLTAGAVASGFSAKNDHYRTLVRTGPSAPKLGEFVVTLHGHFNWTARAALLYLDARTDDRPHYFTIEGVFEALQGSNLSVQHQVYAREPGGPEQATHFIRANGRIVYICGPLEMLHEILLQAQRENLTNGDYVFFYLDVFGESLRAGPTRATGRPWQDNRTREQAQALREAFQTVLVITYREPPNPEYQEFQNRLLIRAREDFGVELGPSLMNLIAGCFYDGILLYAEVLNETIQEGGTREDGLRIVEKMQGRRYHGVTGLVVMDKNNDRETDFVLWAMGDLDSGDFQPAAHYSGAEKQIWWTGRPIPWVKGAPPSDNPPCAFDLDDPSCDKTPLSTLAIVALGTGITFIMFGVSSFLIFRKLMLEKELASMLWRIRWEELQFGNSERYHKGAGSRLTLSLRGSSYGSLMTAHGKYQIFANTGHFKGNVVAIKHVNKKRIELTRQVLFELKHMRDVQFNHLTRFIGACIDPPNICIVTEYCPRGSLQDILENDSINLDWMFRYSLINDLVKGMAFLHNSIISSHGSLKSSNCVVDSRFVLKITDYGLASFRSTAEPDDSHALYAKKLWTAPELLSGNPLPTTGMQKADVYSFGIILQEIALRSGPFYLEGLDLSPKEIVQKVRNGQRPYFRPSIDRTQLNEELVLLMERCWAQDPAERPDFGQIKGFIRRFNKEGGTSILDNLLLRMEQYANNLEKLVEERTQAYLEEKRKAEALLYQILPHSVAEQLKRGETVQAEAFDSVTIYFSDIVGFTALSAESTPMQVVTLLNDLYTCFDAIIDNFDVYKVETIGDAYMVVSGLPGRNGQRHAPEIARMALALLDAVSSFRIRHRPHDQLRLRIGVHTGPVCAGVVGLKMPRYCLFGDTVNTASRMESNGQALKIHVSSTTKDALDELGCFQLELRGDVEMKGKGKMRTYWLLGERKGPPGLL
Method in brief: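 Potency is the EC50 from a four-parameter logistic fit, also expressed relative to the in-plate CNP22 control (×100), with at least two replicates. Compounds (ten concentrations, […], HSA-free diluent with 1% OVA, 0.01% Tween20) were incubated 30 min at 37 °C on HEK293 cells co-expressing hNPR2 and a GloSensor cGMP luciferase. Luminescence detected with Bright-Glo.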

| SMILES | hNPR2 0% HSA. [EC50% rel CNP] [%] |
| --- | --- |
| CC[C@H](C)[C@@H]1NC(=O)[C@H](CCCNC(=N)N)NC(=O)[C@H](CC(=O)O)NC(=O)[C@H](CC(C)C)NC(=O)[C@@H]2CCCN2C(=O)[C@H](CC(C)C)NC(=O)CNC(=O)[C@H](Cc2ccccc2)NC(=O)[C@@H](NC(=O)CNC(=O)[C@H](CCCCN)NC(=O)[C@H](CO)NC(=O)[C@H](CC(C)C)NC(=O)CNC(=O)[C@H](CCCCN)NC(=O)[C@H](CCC(=O)O)NC(=O)[C@H](CCC(N)=O)NC(=O)[C@H](C)NC(=O)CNC(=O)[C@H](CCC(=O)O)NC(=O)[C@H](Cc2ccc(O)cc2)NC(=O)COCCOCCNC(=O)COCCOCCNC(=O)CC[C@H](NC(=O)CCCCCCCCCCCCCCCCC(=O)O)C(=O)O)CSSC[C@@H](C(=O)O)NC(=O)CNC(=O)[C@H](CC(C)C)NC(=O)CNC(=O)[C@H](CO)NC(=O)[C@H](CC(C)C)NC(=O)[C@H](CO)NC(=O)CNC1=O [compound 1226] ({C18 diacid-γGlu-AEEA-AEEA}-YEGAQEKGLSKGCFGLPLDRIGSLSGLGC-OH; disulfide 13-29) | 7.5 |
| CC[C@H](C)[C@@H]1NC(=O)[C@H](CCCNC(=N)N)NC(=O)[C@H](CC(=O)O)NC(=O)[C@H](CC(C)C)NC(=O)[C@@H]2CCCN2C(=O)[C@H](CC(C)C)NC(=O)CNC(=O)[C@H](Cc2ccccc2)NC(=O)[C@@H](NC(=O)CNC(=O)[C@H](Cc2c[nH]cn2)NC(=O)[C@H](CO)NC(=O)[C@H](CC(C)C)NC(=O)CNC(=O)[C@H](CCCCN)NC(=O)[C@H](CCCCN)NC(=O)[C@H](CCC(N)=O)NC(=O)[C@H](C)NC(=O)CNC(=O)COCCOCCNC(=O)COCCOCCNC(=O)CC[C@H](NC(=O)CCCCCCCCCCCCCCCCC(=O)O)C(=O)O)CSSC[C@@H](C(=O)O)NC(=O)CNC(=O)[C@H](CC(C)C)NC(=O)CNC(=O)[C@H](CO)NC(=O)[C@H](CC(C)C)NC(=O)[C@H](CO)NC(=O)CNC1=O [compound 1347] ({C18 diacid-γGlu-AEEA-AEEA}-GAQKKGLSHGCFGLPLDRIGSLSGLGC-OH; disulfide 11-27; C-terminus assumed) | 15.4 |
| CC[C@H](C)[C@@H]1NC(=O)[C@H](CCCNC(=N)N)NC(=O)[C@H](CC(=O)O)NC(=O)[C@H](CC(C)C)NC(=O)[C@@H]2CCCN2C(=O)[C@H](CC(C)C)NC(=O)CNC(=O)[C@H](Cc2ccccc2)NC(=O)[C@@H](NC(=O)CNC(=O)[C@H](CO)NC(=O)[C@H](CO)NC(=O)[C@@H](NC(=O)CNC(=O)[C@@H](NC(=O)[C@H](Cc2c[nH]cn2)NC(=O)[C@H](CCC(N)=O)NC(=O)[C@H](C)NC(=O)CNC(=O)[C@H](Cc2c[nH]cn2)NC(=O)[C@H](Cc2ccc(O)cc2)NC(=O)[C@H](CCCCN)NC(=O)[C@H](CCCNC(=N)N)NC(=O)[C@H](C)NC(=O)COCCOCCNC(=O)COCCOCCNC(=O)CC[C@H](NC(=O)CC[C@H](NC(=O)CC[C@H](NC(=O)CCCCCCCCCCCCCCCCC(=O)O)C(=O)O)C(=O)O)C(=O)O)[C@@H](C)O)C(C)C)CSSC[C@@H](C(=O)O)NC(=O)CNC(=O)[C@H](CC(C)C)NC(=O)CNC(=O)[C@H](CO)NC(=O)[C@H](CC(C)C)NC(=O)[C@H](CO)NC(=O)CNC1=O [compound 1449] ({C18 diacid-γGlu-γGlu-γGlu-AEEA-AEEA}-ARKYHGAQHTGVSSGCFGLPLDRIGSLSGLGC-OH; disulfide 16-32; C-terminus assumed) | 110.0 |
